{"source": "patent US11933780B2", "about": "“System and method for assessing an effect on cellular units in an organism” (Functional Fluidics Inc., priority 2022, dated 2024)", "tested_on": "erythrocytes", "assay": "percentage of sickling of erythrocytes over time during deoxygenation by the PCA/PCD system", "format": "cell-based", "excerpt": "FIG. 5 is a graph illustrating a percentage of sickled erythrocytes over time for one sample that is exposed to a drug and one that is not.\nReferring again to FIG. 3, the method may continue with the step 60 of deoxygenating the supporting medium in the aliquot of sample A and, in certain embodiments, the supporting medium in the aliquot of sample B to induce at least one of a predetermined amount of hypoxia and a predetermined rate of oxygen consumption in each of the supporting mediums. Deoxygenation of the supporting mediums in the aliquots of samples A and B may occur at the same or different times. Deoxygenation may be performed through enzymatic catalysis using enzymatic oxygen scavengers/scrubbers such as glucose oxidase or pyranose oxidase. In a preferred embodiment, deoxygenation is performed through enzymatic catalysis using a reaction substrate comprising protocatechuic acid (PCA) and a reaction enzyme comprising […] (PCD). PCD catalyzes the conversion of PCA and oxygen in the supporting medium in a 1:1 stoichiometry into β-carboxy-cis, cis-muconic acid (CMA). The use of PCA/PCD has a number of advantages relative to other enzymatic catalysis methods and other methods of deoxygenation. […] The use of PCA/PCD can achieve greater levels of hypoxia in the samples relative to some other methods. The use of PCA/PCD can also achieve specific levels of hypoxia as opposed to proceeding to complete hypoxia as in other methods thereby allowing simulation of more specific conditions (e.g., for a particular organ or particular level of hypoxia). Most importantly, the use of PCA/PCD allows accurate control of the rate of oxygen consumption in both the supporting medium and, as a result, the rate of deoxygenation of Hb in embodiments where the cellular unit comprises erythrocytes or extracellular Hb. Conventional methods of deoxygenation assume equilibrium or quasi-equilibrium conditions in which, for example, the rate of Hb deoxygenation occurs […] than the rate of oxygen consumption in the supporting medium. […]", "key": {"[1]": {"conditions": "FIG. 5, curve 76 vs curve 78, PCA/PCD deoxygenation at the same rate of oxygen consumption"}}}
{"smiles": "CC(C)n1nccc1-c1ncccc1COc1cccc(O)c1C=O", "note": "[voxelotor]", "values": [{"measurement": "percentage of sickling of erythrocytes over time", "setting": "FIG. 5, curve 76 (voxelotor) vs curve 78, same erythrocyte-containing sample deoxygenated by PCA/PCD at the same rate of oxygen consumption", "result": "reduction in sickling"}, {"measurement": "delay in sickling", "setting": "[1]", "result": "longer delay in sickling"}, {"measurement": "erythrocyte sickling rate", "setting": "[1]", "result": "slower erythrocyte sickling rate"}]}
